# Data: US10450297B2, “Sulfonyl amide derivatives for the treatment of abnormal cell growth” (Pfizer, Inc., priority 2007, dated 2019)
# Where a name gives a salt, the structure may show the parent alone.
# Target: FAK kinase (catalytic construct FAK(410-689)) (Homo sapiens (Human), UniProt Q05397)
# Test: FAKcd kinase ELISA (inhibition of poly-glu-tyr phosphorylation by FAK(410-689))
# Type: biochemical
# Conditions: 50 μM final ATP
# FAK kinase (catalytic construct FAK(410-689)), sequence (Q05397 410-689): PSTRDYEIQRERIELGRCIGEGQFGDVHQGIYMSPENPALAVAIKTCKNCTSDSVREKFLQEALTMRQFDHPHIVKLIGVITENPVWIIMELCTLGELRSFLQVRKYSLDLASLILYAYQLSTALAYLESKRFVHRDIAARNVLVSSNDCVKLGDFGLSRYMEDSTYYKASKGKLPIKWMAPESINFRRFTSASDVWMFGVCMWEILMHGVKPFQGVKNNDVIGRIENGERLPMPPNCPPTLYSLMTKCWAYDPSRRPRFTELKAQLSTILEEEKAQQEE
row,SMILES,IC50
1,"Cc1cccc(N(C)S(C)(=O)=O)c1CNc1nc(Nc2ccccc2)ncc1C(F)(F)F [Compound 67, N-[2-({[2-anilino-5-(trifluoromethyl)pyrimidin-4-yl]amino}methyl)-3-methylphenyl]-N-methylmethanesulfonamide]",0.6 nM
2,"CN(C)C(=O)c1ccc(Nc2ncc(C(F)(F)F)c(NCc3cccc(N(C)S(C)(=O)=O)c3)n2)cc1 [Compound 228, N, N-dimethyl-4-{[4-({3-[methyl(methylsulfonyl)amino]benzyl}amino)-5-(trifluoromethyl)pyrimidin-2-yl]amino}benzamide]",2.19 nM
3,"CN(c1ncccc1CNc1nc(Nc2ccc(CNS(=O)(=O)C(F)(F)F)cc2)ncc1C(F)(F)F)S(C)(=O)=O [Compound 302, 1,1,1-trifluoro-N-[4-({4-[({2-[methyl(methylsulfonyl)amino]pyridin-3-yl}methyl)amino]-5-(trifluoromethyl)pyrimidin-2-yl}amino)benzyl]methanesulfonamide]",1 nM
4,"CC(C)[C@@H](CO)NC(=O)c1cccc(Nc2ncc(C(F)(F)F)c(NCc3cccnc3N(C)S(C)(=O)=O)n2)c1 [Compound 179, N-[(1S)-1-(hydroxymethyl)-2-methylpropyl]-3-({4-[({2-[methyl(methylsulfonyl)amino]pyridin-3-yl}methyl)amino]-5-(trifluoromethyl)pyrimidin-2-yl}amino)benzamide]",1.09 nM
5,"CC(=O)NCc1cccc(Nc2ncc(C(F)(F)F)c(NCc3cccnc3N(C)S(C)(=O)=O)n2)c1 [Compound 218, N-[3-({4-[({2-[methyl(methylsulfonyl)amino]pyridin-3-yl}methyl)amino]-5-(trifluoromethyl)pyrimidin-2-yl}amino)benzyl]acetamide]",0.6 nM
6,"CC(=O)NCC(=O)NCc1cccc(Nc2ncc(C(F)(F)F)c(NCc3cccnc3N(C)S(C)(=O)=O)n2)c1 [Compound 223, N-2-acetyl-N-[3-({4-[({2-[methyl(methylsulfonyl)amino]pyridin-3-yl}methyl)amino]-5-(trifluoromethyl)pyrimidin-2-yl}amino)benzyl]glycinamide]",0.6 nM
7,"COCCCN(C)C(=O)c1cccc(Nc2ncc(C(F)(F)F)c(NCc3cccnc3N(C)S(C)(=O)=O)n2)c1 [Compound 181, N-(3-methoxypropyl)-N-methyl-3-({4-[({2-[methyl(methylsulfonyl)amino]pyridin-3-yl}methyl)amino]-5-(trifluoromethyl)pyrimidin-2-yl}amino)benzamide]",9.18 nM
8,"CN(c1ncccc1CNc1nc(Nc2ccc(C(=O)NCC3CC3)cc2)ncc1C(F)(F)F)S(C)(=O)=O [Compound 252, N-(cyclopropylmethyl)-4-({4-[({2-[methyl(methylsulfonyl)amino}pyridin-3-yl}methyl)amino]-5-(trifluoromethyl)pyrimidin-2-yl}amino)benzamide]",1.48 nM
9,"Cc1ccc(CNc2nc(Nc3ccccc3)ncc2C(F)(F)F)c(NS(C)(=O)=O)c1 [Compound 62, N-[2-({[2-anilino-5-(trifluoromethyl)pyrimidin-4-yl]amino}methyl)-5-methylphenyl]methanesulfonamide]",10.3 nM
10,"CCCN(CCO)C(=O)c1ccc(Nc2ncc(C(F)(F)F)c(NCc3cccnc3N(C)S(C)(=O)=O)n2)cc1 [Compound 269, N-(2-hydroxyethyl)-4-({4-[({2-[methyl(methylsulfonyl)amino]pyridin-3-yl}methyl)amino]-5-(trifluoromethyl)pyrimidin-2-yl}amino)-N-propylbenzamide]",8.69 nM
11,"Cc1ccc(CNc2nc(Nc3ccc(C(N)=O)cc3)ncc2C(F)(F)F)c(NS(C)(=O)=O)c1 [Compound 112, 4-{[4-({4-methyl-2-((methylsulfonyl)amino]benzyl}amino)-5-(trifluoromethyl)pyrimidin-2-yl]amino}benzamide]",0.6 nM
12,"CN(c1ncccc1CNc1nc(NC2CCN(C(=O)CC(F)(F)F)CC2)ncc1C(F)(F)F)S(C)(=O)=O [Compound 58, N-methyl-N-[3-({[5-(trifluoromethyl)-2-{[1-(3,3,3-trifluoropropanoyl)piperidin-4-yl]amino}pyrimidin-4-yl]amino}methyl)pyridin-2-yl]methanesulfonamide]",165 nM
13,"CN(c1ncccc1CNc1nc(Nc2ccc(S(N)(=O)=O)cc2)ncc1C(F)(F)F)S(C)(=O)=O [Compound 16, 4-({4-[({2-[methyl(methylsulfonyl)amino]pyridin-3-yl}methyl)amino]-5-(trifluoromethyl)pyrimidin-2-yl}amino)benzenesulfon-amide]",4.09 nM
14,"COc1cccc(Nc2ncc(C(F)(F)F)c(NCc3cccnc3N(C)S(C)(=O)=O)n2)c1 [Compound 281, N-{3-[({2-[(3-methoxyphenyl)amino]-5-(trifluoromethyl)pyrimidin-4-yl}amino)methyl]pyridin-2-yl}-N-methylmethane-sulfonamide]",0.6 nM
15,"CN(c1ncccc1CNc1nc(Nc2cccc(C(=O)NCC3(O)CCC3)c2)ncc1C(F)(F)F)S(C)(=O)=O [Compound 127, N-[(1-hydroxycyclobutyl)methyl]-3-({4-[({2-[methyl(methylsulfonyl)amino]pyridin-3-yl}methyl)amino]-5-(trifluoromethyl)pyrimidin-2-yl}amino)benzamide]",2.11 nM
16,"Cc1ccc(CNc2nc(Nc3ccc(S(C)(=O)=O)nc3)ncc2C(F)(F)F)c(N(C)S(C)(=O)=O)n1 [Compound 25, N-methyl-N-[6-methyl-3-({[2-{[6-(methylsulfonyl)pyridin-3-yl]amino}-5-(trifluoromethyl)pyrimidin-4-yl]amino}methyl)pyridin-2-yl]methanesulfonamide]",12.9 nM
17,"CN(c1ncccc1CNc1nc(Nc2cccc(C(=O)NCc3ccccc3)c2)ncc1C(F)(F)F)S(C)(=O)=O [Compound 191, N-benzyl-3-({4-[({2-[methyl(methylsulfonyl)amino]pyridin-3-yl}methyl)amino]-5-(trifluoromethyl)pyrimidin-2-yl}amino)benzamide]",5.5 nM

# Now from value to compound:
row,IC50,SMILES
1,1 nM,"CC(=O)c1ccc(Nc2ncc(C(F)(F)F)c(NCc3cccnc3N(C)S(C)(=O)=O)n2)cc1 [Compound 311, N-{3-[({2-[(4-acetylphenyl)amino]-5-(trifluoromethyl)pyrimidin-4-yl}amino)methyl]pyridin-2-yl}-N-methylmethane-sulfonamide]"
2,0.941 nM,"CN(c1nccnc1CNc1nc(Nc2ccc(C(O)CO)cc2)ncc1C(F)(F)F)S(C)(=O)=O (stereo not drawn) [Compound 411, N-[3-({[2-{[4-(1,2-dihydroxyethyl)phenyl]amino}-5-(trifluoromethyl)pyrimidin-4-yl]amino}methyl)pyrazin-2-yl]-N-methylmethane-sulfonamide]"
3,0.6 nM,"CN(c1ncccc1CNc1nc(Nc2cccc(C(=O)O)c2)ncc1C(F)(F)F)S(C)(=O)=O [Example 10, 3-({4-[({2-[methyl(methylsulfonyl)amino]pyridin-3-yl}methyl)amino]-5-(trifluoromethyl)pyrimidin-2-yl}amino)benzoic acid trifluoroacetic acid salt]"
4,2.14 nM,"CN(c1cccc(CNc2nc(Nc3ccc(C(N)=O)c(F)c3)ncc2C(F)(F)F)c1)S(C)(=O)=O [Compound 333, 2-fluoro-4-{[4-({3-[methyl(methylsulfonyl)amino]benzyl}amino)-5-(trifluoromethyl)pyrimidin-2-yl]amino}benzamide]"
5,1.51 nM,"CC(=O)NCC(=O)Nc1cccc(Nc2ncc(C(F)(F)F)c(NCc3nccnc3N(C)S(C)(=O)=O)n2)c1 [Compound 397, N-2-acetyl-N-[3-({4-[({3-[methyl(methylsulfonyl)amino]pyrazin-2-yl}methyl)amino]-5-(trifluoromethyl)pyrimidin-2-yl}amino)phenyl]glycinamide]"
6,15.5 nM,"CN(c1cccc(CNc2nc(Nc3cc(C(N)=O)ccc3F)ncc2C(F)(F)F)c1)S(C)(=O)=O [Compound 374, 4-fluoro-3-{[4-({3-[methyl(methylsulfonyl)amino]benzyl}amino)-5-(trifluoromethyl)pyrimidin-2-yl]amino}benzamide]"
7,< 0.595 nM,"CN(c1ncccc1CNc1nc(Nc2ccc(C(N)=O)c(O)c2)ncc1C(F)(F)F)S(C)(=O)=O [Compound 394, 2-hydroxy-4-({4-[({2-[methyl(methylsulfonyl)amino)pyridin-3-yl}methyl)amino]-5-(trifluoromethyl)pyrimidin-2-yl}amino)benzamide]"
8,1.17 nM,"CNC(=O)c1ccc(Nc2ncc(C(F)(F)F)c(NCc3nccnc3N(C)S(C)(=O)=O)n2)c(C)c1 [Compound 401, N,3-dimethyl-4-({4-[({3-[methyl(methylsulfonyl)amino]pyrazin-2-yl}methyl)amino]-5-(trifluoromethyl)pyrimidin-2-yl}amino)benzamide]"
9,1.69 nM,"CN(c1nccnc1CNc1nc(Nc2ccc(C(N)=O)c(F)c2)ncc1C(F)(F)F)S(C)(=O)=O [Compound 327, 2-fluoro-4-({4-[({3-[methyl(methylsulfonyl)amino]pyrazin-2-yl}methyl)amino]-5-(trifluoromethyl)pyrimidin-2-yl}amino)benzamide]"
10,0.863 nM,"CN(c1cccnc1CNc1nc(Nc2ccc(C(N)=O)c(F)c2)ncc1C(F)(F)F)S(C)(=O)=O [Compound 332, 2-fluoro-4-({4-[({3-[methyl(methylsulfonyl)amino]pyridin-2-yl}methyl)amino]-5-(trifluoromethyl)pyrimidin-2-yl}amino)benzamide]"
11,< 0.595 nM,"Cc1cc(C(N)=O)ccc1Nc1ncc(C(F)(F)F)c(NCc2cccnc2N(C)S(C)(=O)=O)n1 [Compound 341, 3-methyl-4-({4-[({2-[methyl(methylsulfonyl)amino]pyridin-3-yl}methyl)amino]-5-(trifluoromethyl)pyrimidin-2-yl}amino)benzamide]"
12,< 0.595 nM,"CC(=O)Nc1cccc(Nc2ncc(C(F)(F)F)c(NCc3cccnc3N(C)S(C)(=O)=O)n2)c1 [Compound 366, N-[3-({4-[({2-[methyl(methylsulfonyl)amino]pyridin-3-yl}methyl)amino]-5-(trifluoromethyl)pyrimidin-2-yl}amino)phenyl]acetamide]"
13,0.746 nM,"CN(c1ncccc1CNc1nc(Nc2ccc(C#N)c(O)c2)ncc1C(F)(F)F)S(C)(=O)=O [Compound 390, N-{3-[({2-[(4-cyano-3-hydroxyphenyl)amino]-5-(trifluoromethyl)pyrimidin-4-yl}amino)methyl]pyridin-2-yl}-N-methylmethane-sulfonamide]"
